We go through 21 compounds from patent US20250026721A1, “COMPOUNDS AND METHODS FOR MODULATING RAS-PI3K” (Vividion Therapeutics, Inc., priority 2023, published 2025).

Structures are written as SMILES.

In the test the target is T1, PIK3CA (Homo sapiens, UniProt P42336).
T1 construct: endogenous in cells; host or cells: Jurkat cell lysate
T1 sequence (P42336 whole entry): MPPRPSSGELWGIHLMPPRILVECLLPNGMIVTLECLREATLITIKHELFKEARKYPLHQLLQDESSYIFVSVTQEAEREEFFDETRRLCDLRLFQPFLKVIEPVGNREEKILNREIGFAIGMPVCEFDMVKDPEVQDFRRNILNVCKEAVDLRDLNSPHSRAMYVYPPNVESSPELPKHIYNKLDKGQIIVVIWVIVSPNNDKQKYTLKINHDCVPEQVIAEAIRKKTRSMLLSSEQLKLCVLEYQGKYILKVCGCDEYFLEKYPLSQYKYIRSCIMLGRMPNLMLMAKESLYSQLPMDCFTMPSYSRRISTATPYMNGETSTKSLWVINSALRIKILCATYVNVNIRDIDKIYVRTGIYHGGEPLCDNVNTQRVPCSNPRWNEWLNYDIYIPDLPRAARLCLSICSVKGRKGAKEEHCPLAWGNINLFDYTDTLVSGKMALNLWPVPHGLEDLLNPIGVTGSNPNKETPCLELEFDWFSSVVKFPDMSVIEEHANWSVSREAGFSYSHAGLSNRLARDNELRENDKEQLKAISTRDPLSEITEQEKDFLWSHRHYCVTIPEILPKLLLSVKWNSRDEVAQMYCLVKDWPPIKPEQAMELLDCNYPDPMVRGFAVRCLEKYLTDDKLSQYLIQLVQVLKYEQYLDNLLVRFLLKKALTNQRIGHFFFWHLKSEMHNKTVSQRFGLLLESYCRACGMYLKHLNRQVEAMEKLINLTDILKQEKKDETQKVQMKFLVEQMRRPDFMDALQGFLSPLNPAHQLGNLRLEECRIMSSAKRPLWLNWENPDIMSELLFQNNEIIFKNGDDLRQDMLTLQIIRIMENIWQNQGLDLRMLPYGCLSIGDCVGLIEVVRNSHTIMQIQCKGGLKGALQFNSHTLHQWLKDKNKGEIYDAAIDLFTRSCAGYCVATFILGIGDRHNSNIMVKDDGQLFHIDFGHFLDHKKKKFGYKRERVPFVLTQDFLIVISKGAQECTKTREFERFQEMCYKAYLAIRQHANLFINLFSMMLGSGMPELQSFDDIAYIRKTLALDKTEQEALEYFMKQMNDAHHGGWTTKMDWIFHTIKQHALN
T1 sequence (P27986 whole entry partner): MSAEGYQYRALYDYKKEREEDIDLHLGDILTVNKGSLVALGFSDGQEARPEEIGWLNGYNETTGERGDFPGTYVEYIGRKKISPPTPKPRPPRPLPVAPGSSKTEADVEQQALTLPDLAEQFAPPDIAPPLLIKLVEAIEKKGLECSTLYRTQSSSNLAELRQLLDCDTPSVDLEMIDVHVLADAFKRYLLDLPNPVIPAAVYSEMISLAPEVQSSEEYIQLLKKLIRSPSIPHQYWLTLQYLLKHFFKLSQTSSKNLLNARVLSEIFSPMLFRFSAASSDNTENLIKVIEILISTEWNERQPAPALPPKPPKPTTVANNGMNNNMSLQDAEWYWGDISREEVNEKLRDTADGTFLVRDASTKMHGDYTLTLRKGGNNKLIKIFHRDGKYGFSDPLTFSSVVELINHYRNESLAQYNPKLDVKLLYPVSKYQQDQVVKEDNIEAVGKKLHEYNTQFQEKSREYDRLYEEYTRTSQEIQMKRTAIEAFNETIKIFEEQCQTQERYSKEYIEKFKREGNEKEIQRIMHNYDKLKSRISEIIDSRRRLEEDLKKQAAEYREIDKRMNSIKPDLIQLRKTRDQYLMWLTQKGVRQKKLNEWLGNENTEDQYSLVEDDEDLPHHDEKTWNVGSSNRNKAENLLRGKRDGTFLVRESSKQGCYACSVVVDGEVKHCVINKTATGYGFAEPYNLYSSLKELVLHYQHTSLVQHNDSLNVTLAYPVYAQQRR
As to the kind of experiment: In vitro ELISA target engagement assay for PIK3CA in Jurkat cellular lysate (competition with PIK3CA Biotin Probe). The following applies: 1 hour at rt, then 500 nM PIK3CA Biotin Probe, read-out: Elisa Target Engagement Assay (TE50). The class given is binding. The method, then:
Example 3. In Vitro ELISA Target Engagement Assay for […] Engagement of compounds on PIK3CA were assessed in Jurkat cellular lysate via a sandwich ELISA. A solution of PIK3CA Biotin Probe was generated at 10 mM and used in the biological testing. […] Treatment Protocol: Jurkat cellular lysate was generated from frozen cell pellets. Cells were thawed on ice and resuspended in cold Dulbecco's phosphate buffered saline (DPBS) (12 mL/300 e^6 cells) then lysed by probe sonication (12×3 second pulses). Jurkat lysate was plated (50 μl/well) in Armadillo 96 well PCR plates (Thermo Fisher catalog number AB2396). The lysate was treated with serial dilutions of test compounds up to 200 μM and incubated for 1 hour at rt. Following compound incubation, PIK3CA Biotin Probe was added to a final concentration of 500 nM, and lysate was mixed by pipetting gently and incubated for an additional 1 hour at rt. The mixture was then diluted in 75 μL Dilution buffer. The mixture was centrifuged for 5 minutes at 4122 g and stored at −80° C. until ELISA TE detection. ELISA TE Detection: Quantification of PIK3CA TE was initiated by coating of the ELISA plate (Thermo Scientific White 384-Well Immuno plates; Thermo Fisher catalog number 460372). The capture antibody was diluted in plating buffer (1:83) and added to the ELISA plate, 20 μl/well, overnight at 4° C. The plate was then washed twice with PBST, 100 μl/well, and blocked with addition of blocking buffer (100 μl/well, 1 hour at rt). During block, treated and probe labeled lysate was thawed. After Block, the block buffer was removed and the thawed lysate was added to the ELISA plate, 30 μl/well, for 1.5 hours at rt. Following lysate incubation, the assay plate was washed 3 times with PBST, 100 μl/well. The Neutravidin-HRP was then diluted (1:500 in dilution buffer) and added for 1 hour at rt, 20 μl/well. Following incubation, the assay plate was washed 4 times with PBST, 100 μl/well, HRP substrate was added to plate, 20 μl/well and luminescence signal was read (Clariostar Plate Reader). For each compound the potency of target engagement (TE50) was determined using Graphpad Prism.
For orientation: An ELISA detects its analyte on a solid surface through an enzyme-linked reagent.
As to `COc1ccc(S(=O)(=O)N2CCC(F)(C(=O)N[C@H](C)C3=CS(=O)(=O)C3)CC2)c(-c2ccccc2Cl)c1` [Compound 235, (R)-1-((2′-chloro-5-methoxy-[1,1′-biphenyl]-2-yl)sulfonyl)-N-(1-(1,1-dioxido-2H-thiet-3-yl)ethyl)-4-fluoropiperidine-4-carboxamide], the IC50 was 370 nM.

Regarding `C[C@H](/C=C\S(C)(=O)=O)NC(=O)[C@]1(F)CCCN(S(=O)(=O)c2ccc(C(F)(F)F)cc2-c2ccccc2Cl)CC1` [Compound 311, (S)-1-((2′-chloro-5-(trifluoromethyl)-[1,1′-biphenyl]-2-yl)sulfonyl)-4-fluoro-N-((R,Z)-4-(methylsulfonyl)but-3-en-2-yl)azepane-4-carboxamide], the IC50 was determined as 820 nM.

In the case of `C[C@H](/C=C\S(C)(=O)=O)NC(=O)C1(F)CCN(C(=O)[C@H]2CN(CC(F)(F)C(F)(F)F)C[C@H]2c2ccccc2Cl)CC1` [Compound 182, 1-((3R,4R)-4-(2-chlorophenyl)-1-(2,2,3,3,3-pentafluoropropyl)pyrrolidine-3-carbonyl)-4-fluoro-N-((R,Z)-4-(methylsulfonyl)but-3-en-2-yl)piperidine-4-carboxamide], the IC50 amounted to 910 nM.

With `C[C@H](/C=C\S(C)(=O)=O)NC(=O)C1(F)CCN(S(=O)(=O)c2cnc(C(F)(F)F)cc2-c2cccc(F)c2Cl)CC1` [Compound 209, (R,Z)-1-((4-(2-chloro-3-fluorophenyl)-6-(trifluoromethyl)pyridin-3-yl)sulfonyl)-4-fluoro-N-(4-(methylsulfonyl)but-3-en-2-yl)piperidine-4-carboxamide], the IC50 amounted to 240 nM.

On to `C[C@H](/C=C\S(C)(=O)=O)NC(=O)[C@@]1(F)CCCN(C(=O)[C@@H]2CN(CC(F)(F)F)C[C@@H]2c2c(F)ccc(F)c2Cl)CC1` (single isomer, unassigned) [Compound 226, (R)-1-((3*S,4*S)-4-(2-chloro-3,6-difluorophenyl)-1-(2,2,2-trifluoroethyl)pyrrolidine-3-carbonyl)-4-fluoro-N-((R,Z)-4-(methylsulfonyl)but-3-en-2-yl)azepane-4-carboxamide], for which the IC50 amounted to 170 nM.

As to `C[C@H](/C=C\S(C)(=O)=O)NC(=O)[C@]1(F)CCN(S(=O)(=O)c2ccc(C(F)(F)F)cc2-c2ccccc2Cl)[C@H](C)C1` [Compound 142, (2R,4S)-1-((2′-chloro-5-(trifluoromethyl)-[1,1′-biphenyl]-2-yl)sulfonyl)-4-fluoro-2-methyl-N-((R,Z)-4-(methylsulfonyl)but-3-en-2-yl)piperidine-4-carboxamide], the IC50 turned out to be 120 nM.

Consider `COc1ccc(C(=O)N2CCC[C@](F)(C(=O)N[C@H](C)/C=C\S(C)(=O)=O)CC2)c(-c2ccccc2Cl)c1` [Compound 295, (R)-1-(2′-chloro-5-methoxy-[1,1′-biphenyl]-2-carbonyl)-4-fluoro-N-((R,Z)-4-(methylsulfonyl)but-3-en-2-yl)azepane-4-carboxamide], for which the IC50 stood at 350 nM.

On to `Cc1ccc(-c2cc(Br)ccc2S(=O)(=O)N2CCC(F)(C(=O)N[C@H](C)/C=C\S(C)(=O)=O)CC2)c(Cl)c1` [Compound 53, (R,Z)-1-((5-bromo-2′-chloro-4′-methyl-[1,1′-biphenyl]-2-yl)sulfonyl)-4-fluoro-N-(4-(methylsulfonyl)but-3-en-2-yl)piperidine-4-carboxamide], for which the IC50 was 960 nM.

Consider `COc1ccc(S(=O)(=O)N2CCC(F)(C(=O)N[C@H](/C=C\S(C)(=O)=O)CC(F)(F)F)CC2)c(-c2ccccc2Cl)c1` (single isomer, unassigned) [Compound 239, (*S,Z)-1-((2′-chloro-5-methoxy-[1,1′-biphenyl]-2-yl)sulfonyl)-4-fluoro-N-(5,5,5-trifluoro-1-(methylsulfonyl)pent-1-en-3-yl)piperidine-4-carboxamide], for which the IC50 was 280 nM.

Regarding `C[C@H](/C=C\S(C)(=O)=O)NC(=O)C1(F)CCN(C(=O)[C@H]2CN(C(=O)C(C)(C)C)C[C@H]2c2ccccc2Cl)CC1` [Compound 161, 1-((3R,4R)-4-(2-chlorophenyl)-1-pivaloylpyrrolidine-3-carbonyl)-4-fluoro-N-((R,Z)-4-(methylsulfonyl)but-3-en-2-yl)piperidine-4-carboxamide], the IC50 amounted to 800 nM.

Regarding `C[C@H](/C=C/S(=O)(=O)C1CNC1)NC(=O)C1(F)CCN(S(=O)(=O)c2ccc(Br)cc2-c2ccccc2Cl)CC1` [Compound 76, (R,E)-N-(4-(azetidin-3-ylsulfonyl)but-3-en-2-yl)-1-((5-bromo-2′-chloro-[1,1′-biphenyl]-2-yl)sulfonyl)-4-fluoropiperidine-4-carboxamide], the IC50 was found to be 32 nM.

As to `C[C@H](/C=C\S(C)(=N)=O)NC(=O)C1(F)CCN(S(=O)(=O)c2ccc(Br)cc2-c2ccccc2Cl)CC1` (mixture of isomers) [Compound 73, 1-((5-bromo-2′-chloro-[1,1′-biphenyl]-2-yl)sulfonyl)-4-fluoro-N-((2R,Z)-4-(S-methylsulfonimidoyl)but-3-en-2-yl)piperidine-4-carboxamide], the IC50 amounted to 304 nM.

In the case of `C[C@H](/C=C\S(C)(=O)=O)NC(=O)C1(F)CCN(C(=O)C2CCN(C(=O)OC(C)(C)C)C=C2c2ccccc2Cl)CC1` (stereo partly drawn) [Compound 258, tert-butyl 5-(2-chlorophenyl)-4-(4-fluoro-4-(((R,Z)-4-(methylsulfonyl)but-3-en-2-yl)carbamoyl)piperidine-1-carbonyl)-3,4-dihydropyridine-1(2H)-carboxylate], the IC50 is 883 nM.

On to `CCOCc1cccc(-c2cc(Cl)ccc2S(=O)(=O)N2CCC(F)(C(=O)N[C@@H](C)/C=C\S(C)(=O)=O)CC2)c1` [Compound 17, (S,Z)-1-((5-chloro-3′-(ethoxymethyl)-[1,1′-biphenyl]-2-yl)sulfonyl)-4-fluoro-N-(4-(methylsulfonyl)but-3-en-2-yl)piperidine-4-carboxamide], for which the IC50 was found to be 760 nM.

For the compound `O=C(/C=C/CNC(=O)C1(F)CCN(S(=O)(=O)c2ccc(C(F)(F)F)cc2-c2ccccc2Cl)CC1)N1CC(F)(F)C1` [Compound 283, (E)-1-((2′-chloro-5-(trifluoromethyl)-[1,1′-biphenyl]-2-yl)sulfonyl)-N-(4-(3,3-difluoroazetidin-1-yl)-4-oxobut-2-en-1-yl)-4-fluoropiperidine-4-carboxamide], the IC50 came to 200 nM.

On to `C[C@H](/C=C\S(C)(=O)=O)NC(=O)C1(F)CCN(S(=O)(=O)c2ccc(Br)cc2-c2ccc(F)cc2Cl)CC1` [Compound 50, (R,Z)-1-((5-bromo-2′-chloro-4′-fluoro-[1,1′-biphenyl]-2-yl)sulfonyl)-4-fluoro-N-(4-(methylsulfonyl)but-3-en-2-yl)piperidine-4-carboxamide], for which the IC50 is 319 nM.

With `C[C@@H](/C=C\S(C)(=O)=O)NC(=O)C1(F)CCN(S(=O)(=O)c2cnc(C(F)(F)F)cc2-c2ccc(F)cc2Cl)CC1` [Compound 212, (S,Z)-1-((4-(2-chloro-4-fluorophenyl)-6-(trifluoromethyl)pyridin-3-yl)sulfonyl)-4-fluoro-N-(4-(methylsulfonyl)but-3-en-2-yl)piperidine-4-carboxamide], the IC50 turned out to be 380 nM.

`C[C@@H](/C=C\C(=O)N1CC(F)(F)C1)NC(=O)C1(F)CCN(S(=O)(=O)c2ccc(Br)cc2-c2ccccc2Cl)CC1` [Compound 287, (S,Z)-1-((5-bromo-2′-chloro-[1,1′-biphenyl]-2-yl)sulfonyl)-N-(5-(3,3-difluoroazetidin-1-yl)-5-oxopent-3-en-2-yl)-4-fluoropiperidine-4-carboxamide]: the IC50 stood at 830 nM.

Turning to `C[C@@H]1C[C@](F)(C(=O)NC/C=C\C(=O)N2CC(F)(F)C2)CCN1C(=O)[C@H]1COC(C)(C)C[C@@H]1c1ccccc1Cl` (single isomer, unassigned) [Compound 293, (2*R,4*S)-1-((3*R,4*S)-4-(2-chlorophenyl)-6,6-dimethyltetrahydro-2H-pyran-3-carbonyl)-N-((Z)-4-(3,3-difluoroazetidin-1-yl)-4-oxobut-2-en-1-yl)-4-fluoro-2-methylpiperidine-4-carboxamide], the IC50 is 820 nM.

As to `C[C@@H](NC(=O)C1(F)CCN(S(=O)(=O)c2ccc(C(F)(F)F)cc2-c2ccccc2Cl)CC1)C1=CS(=O)(=O)C1` [Compound 236, (R)-1-((2′-chloro-5-(trifluoromethyl)-[1,1′-biphenyl]-2-yl)sulfonyl)-N-(1-(1,1-dioxido-2H-thiet-3-yl)ethyl)-4-fluoropiperidine-4-carboxamide], the IC50 turned out to be 390 nM.

Turning to `COC[C@H](/C=C\S(C)(=O)=O)NC(=O)C1(F)CCN(S(=O)(=O)c2ccc(Br)cc2-c2ccccc2Cl)CC1` [Compound 247, (S,Z)-1-((5-bromo-2′-chloro-[1,1′-biphenyl]-2-yl)sulfonyl)-4-fluoro-N-(1-methoxy-4-(methylsulfonyl)but-3-en-2-yl)piperidine-4-carboxamide], the IC50 stood at 410 nM.
